Results on three compounds are retold here after patent US9375002B2, “5-aminopyrimidine derivatives and use thereof for combating undesired plant growth” (BAYER INTELLECTUAL PROPERTY GMBH, priority 2012, dated 2016).

One series has as its system Echinochloa crus-galli. Description: Post-emergence herbicidal effect. In kind it is in vivo. To be noted: 1280 g/ha, visual rating after about 3 weeks. The protocol:
(§1) AMARE: Amaranthus retroflexus ECHCG: Echinochloa crus-galli 2. Post-Emergence Herbicidal Effect and Crop Plant Compatibility Seeds of monocotyledonous and dicotyledonous weed and crop plants are placed in sandy loam in wood-fiber pots, covered with soil and cultivated in a greenhouse under good growth conditions. 2 to 3 weeks after sowing, the test plants are treated at the one-leaf stage. The compounds according to the invention, formulated in the form of wettable powders (WP) or as emulsion concentrates (EC), are then sprayed as aqueous suspension or emulsion at a water application rate of 600 to 800 I/ha (converted) with the addition of 0.2% of wetting agent onto the green parts of the plants. After the test plants have been kept in the greenhouse under optimum growth conditions for about 3 weeks, the activity of the preparations is rated visually in comparison to untreated controls (herbicidal activity in percent (%): 100% activity=the plants have died, 0% activity=like control plants).

For another series, the system named is Polygonum convolvulus. The experiment in a line: Post-emergence herbicidal effect. In kind it is in vivo. To be noted: 1280 g/ha, visual rating after about 3 weeks. The protocol: as §1, with “POLCO: Polygonum convolvulus SETVI: Setaria viridis” for “AMARE: Amaranthus retroflexus ECHCG: Echinochloa crus-galli”
The subject of the next series is Stellaria media. Description: Post-emergence herbicidal effect. It counts as in vivo. To be noted: 1280 g/ha, visual rating after about 3 weeks. The protocol:
as §1, with “STEME: Stellaria media VERPE: Veronica persica” for “AMARE: Amaranthus retroflexus ECHCG: Echinochloa crus-galli”

Series [1] in a line: logp (HCOOH), physicochemical characterization. To be noted: HCOOH.
The test system of a further series is Amaranthus retroflexus. Description: Post-emergence herbicidal effect. In kind it is in vivo. To be noted: 1280 g/ha, visual rating after about 3 weeks. The protocol:
as §1

Another series relates to Veronica persica. The experiment in a line: Post-emergence herbicidal effect. In kind it is in vivo. To be noted: 1280 g/ha, visual rating after about 3 weeks. The protocol: as §1, with “STEME: Stellaria media VERPE: Veronica persica” for “AMARE: Amaranthus retroflexus ECHCG: Echinochloa crus-galli”
The next series has as its system Viola tricolor. The experiment in a line: Post-emergence herbicidal effect. It counts as in vivo. The following applies: 1280 g/ha, visual rating after about 3 weeks. The protocol:
as §1, with “VIOTR: Viola tricolor” for “AMARE: Amaranthus retroflexus ECHCG: Echinochloa crus-galli”

Structures are written as SMILES.

Take `CCc1ccc2c(c1)C(Nc1cnc(S(C)(=O)=O)nc1)CCO2` (racemic) [compound 65]: in the series with Echinochloa crus-galli, the “herbicidal activity ECHCG” value is 100%. Further, the “herbicidal activity POLCO” value with Polygonum convolvulus was 80%. The “herbicidal activity STEME” value in the series on Stellaria media turned out to be 90%. In addition, the “logp (HCOOH)” value in series [1] is “wax-like; logp (HCOOH): 2.54; 1H-NMR (CDCl3, 400 MHZ, δ in ppm): 1.20 (t, 3H,”.

For the compound `Cc1ccc2c(c1)[C@H](Nc1cnc(S(C)(=O)=O)nc1)[C@@H](C)C2` [compound 134], in the series with Amaranthus retroflexus, the “herbicidal activity AMARE” value was determined as 80%. In the series on Echinochloa crus-galli, the “herbicidal activity ECHCG” value is given as 90%. In the series on Polygonum convolvulus, the “herbicidal activity POLCO” value worked out at 90%. Further, the “herbicidal activity STEME” value in the series with Stellaria media stood at 100%. In addition, in the series with Veronica persica, the “herbicidal activity VERPE” value was determined as 90%. Further, the “herbicidal activity VIOTR” value with Viola tricolor turned out to be 90%.

Take `CCc1ccc2c(c1)C(Nc1cnc(S(C)(=O)=O)nc1C(=O)O)CCO2` (racemic) [compound 68]: the “herbicidal activity ECHCG” value in the series on Echinochloa crus-galli worked out at 90%. For the same compound, the “herbicidal activity POLCO” value in the series on Polygonum convolvulus was 80%. In addition, the “herbicidal activity VIOTR” value with Viola tricolor worked out at 80%.
